Laboratory results reported in US20230181673A1, “TRI-PEPTIDES AND TREATMENT OF METABOLIC, CARDIOVASCULAR AND INFLAMMATORY DISORDERS” (Diapin Therapeutics, LLC, priority 2018, published 2023).
Non-standard residues stand in square brackets, D forms with d. No end group written: not given here.

Experiments:
[1] = Body weight, food intake and adiposity in apoE−/− mice fed Western diet; type: in vivo; conditions: apoE−/− mice on WD; for Gross appearance of the peritoneal cavities at endpoint (yellowish coloration of the liver, enlarged visceral fat pads): glycine 0.67, leucine 0.33, DT-109/DT-110 1 mg/g; for Total gain in body weight from baseline to endpoint, lower by: 12 weeks oral gavage, DT-109 1 mg/g; for Adipocyte hypertrophy in EAT and SAT: H&E histology (FIG. 15L)
Text: All animal procedures were approved by the Institutional Animal Care & Use Committee of the University of Michigan (PRO00008239) and performed in accordance with the institutional guidelines. Eight-week-old male apolipoprotein E-deficient (apoE−/−) mice (B6.129P2-Apoetm1Unc/J, Stock No.: 002052) were obtained from Jackson Laboratories. Mice were fed Western diet (WD, 42% of calories from fat and 0.2% cholesterol by weight, Envigo TD.88137). After one week of WD feeding, blood was carefully collected from the facial vein to determine baseline plasma levels of total cholesterol (TC). […] All mice were maintained on a 12-hour light/dark cycle and had ad libitum access to food and water. Body weight and food intake were measured every one and three weeks, respectively
The experimental design is depicted in FIG. 1A. After one week of Western diet (WD) feeding to apoE−/− mice, blood was collected from the facial vein (FV) to determine baseline plasma levels of TC.
Animal procedures were approved (PRO00008239) by the Institutional Animal Care & Use Committee of the University of Michigan (U-M) and performed in accordance with the institutional guidelines. Seven weeks-old C57BL/6J or apoE−/− mice (B6.129P2-Apoetm1Unc/J, Stock:002052) were from Jackson Laboratories. AGXT1−/− mice on C57BL/6J background were generated using CRISPR/Cas9, with guide-RNA targeting exon 1 of AGXT1: 5′-[…]-3′.
Histological procedures were performed by technicians blinded to the experimental groups at the In Vivo Animal Core (IVAC) Histology Laboratory, University of Michigan. Formalin-fixed tissues were processed through graded alcohols and cleared with xylene followed by infiltration with molten paraffin using an automated VIP5 or VIP6 tissue processor (TissueTek, Sakura-Americas). Using a Histostar Embedding Station (ThermoFisher Scientific), tissues were then sectioned on a M355S rotary microtome (ThermoFisher Scientific) at 4 μm thickness and mounted on glass slides. Slides were stained for hematoxylin and eosin (H&E, ThermoFisher Scientific). For Sirius Red staining, slides were treated with 0.2 phosphomolybdic acid for 3 min and transferred to 0.1% Sirius Red saturated in picric acid (Rowley Biochemical Inc.) for 90 min, then transferred to 0.01N hydrochloric acid for 3 min.

diet-induced NASH = type: in vivo, mice; conditions: for NASH-diet-induced hepatomegaly and yellowish coloration: leucine 0.17, glycine 0.33, DT-109 0.125 or 0.5 mg/g/day
NASH-diet-induced HS = type: in vivo, mice; conditions: endpoint
Protocol: Frozen section processing was used for Oil Red O (ORO) staining. Formalin-fixed liver samples were cryoprotected in 20% sucrose at 4° C. overnight, blotted, then liquid nitrogen-snap frozen in O.C.T. Compound (Tissue-Tek, Cat #4583) and stored at −80° C. until ready for cryosectioning. Prior to sectioning, frozen blocks were brought up to about −20° C., then sectioned at 5 μm on a Cryotome SME (Thermo-Shandon, Cat #77200227). Slides were stored at −80° C. until stained. Prior to staining, liver slides were thawed to room temperature for 30 min. Slides were post-fixed in 10% Neutral Buffered Formalin for 20 min, rinsed in DDW, followed by rinsing in 60% Isopropanol before being placed in working ORO-isopropanol stain (Rowley Biochemical Inc., H-503-1B) for 5 min. Slides were then rinsed in 60% Isopropanol followed by three changes of DDW. Then, slides were nuclear counterstained in Harris Hematoxylin and mounted in Aqua-Mount (Lerner Laboratories, Cat #13800) aqueous mounting media.
Livers were rapidly removed from the euthanized mice, snap-frozen with liquid nitrogen, and kept at −80° C. Frozen liver samples (100 mg) were homogenized in PBS and centrifuged (14,000 RPM, 20 min). The supernatants were collected and analyzed for protein content using Bio-Rad Bradford assay. To assess liver lipid composition, lipids were extracted from the supernatants using hexane (≥99%, Sigma-Aldrich 32293) and isopropanol (≥99.5%, Fisher Scientific A428-4) at a 3:2 ratio (v:v), and the hexane phase was left for evaporation for 48 h. […] Liver diacylglycerols (DAG) were determined using ELISA Kit (Aviva Systems Biology, OKEH02607), according to the manufacturer's instructions. Hepatic TG, TC and DAG data were normalized to protein levels.
(§1) Mice fed CD and administered H2O served as control.

hepatic gene expression [2] = type: in vivo, mice; conditions: NASH-diet, liver
Protocol: (§2) Total RNA from mouse liver samples was extracted using QIAGEN's RNeasy kits (QIAGEN). RNA was reverse-transcribed into cDNA with SuperScript III and random primers (Invitrogen). Specific transcript levels were assessed by a real-time PCR system (Bio-Rad) using IQ SYBR Green Supermix (Bio-Rad) and the ΔΔCt threshold cycle method of normalization. Gene expression levels were normalized to glycerldehyde 3-phosphate dehydrogenase (GAPDH).
as §1

hepatic gene expression [3] = assay: qPCR analysis of hepatic gene expression in WD-fed apoE−/− mice; type: in vivo; conditions: for Hepatic expression of CCL2 / Hepatic expression of TNFα / Hepatic expression of key genes regulating FAO (PPARα, PNPLA2, CACT, CPT1a, ACADL): apoE−/− mice on WD, qPCR (FIG. 16D)
Text: Eight-week-old male apolipoprotein E-deficient (apoE−/−) mice (B6.129P2-Apoetm1Unc/J, Stock No.: 002052) were obtained from Jackson Laboratories. Mice were fed Western diet (WD, 42% of calories from fat and 0.2% cholesterol by weight, Envigo TD.88137). After one week of WD feeding, blood was carefully collected from the facial vein to determine baseline plasma levels of total cholesterol (TC). […] All mice were maintained on a 12-hour light/dark cycle and had ad libitum access to food and water. Body weight and food intake were measured every one and three weeks, respectively
Total RNA from liver or adipose tissue samples was extracted using QIAGEN's RNeasy kits (QIAGEN). RNA was reverse-transcribed into cDNA with SuperScript III and random primers (Invitrogen). Specific transcript levels were assessed by a real-time PCR system (Bio-Rad) using IQ SYBR Green Supermix (Bio-Rad) and the ΔΔCt threshold cycle method of normalization. Gene expression levels were normalized to glyceraldehyde 3-phosphate dehydrogenase (GAPDH). Primer pairs used for qPCR were obtained from Integrated DNA Technologies and are listed below:
as §2

Row | Molecule | Gross appearance of the peritoneal cavities at endpoint (yellowish coloration of the liver, enlarged visceral fat pads) ([1]; 12 weeks) | F4/80 immunostaining in liver (diet-induced NASH; endpoint, NASH-diet) | NASH-diet-induced hepatic fibrosis (Sirius Red and fibrosis scoring) (diet-induced NASH; endpoint, NASH-diet) | HS by ORO and lipid quantification (NASH-diet-induced HS) | TGFβ-related genes (qPCR) (hepatic gene expression [2]) | Total gain in body weight from baseline to endpoint, lower by ([1]; glycine 0.67 mg/g, vs WD+H2O) [%] | Adipocyte hypertrophy in EAT and SAT [1] | NASH-diet-induced hepatomegaly and yellowish coloration (diet-induced NASH; endpoint) | Hepatic expression of CCL2 (hepatic gene expression [3]) | Hepatic expression of TNFα (hepatic gene expression [3]) | Hepatic expression of key genes regulating FAO (PPARα, PNPLA2, CACT, CPT1a, ACADL) (hepatic gene expression [3]) | Hepatic expression of ABCG5 and ABCG8 (hepatic gene expression [3]; liver, endpoint, qPCR) | Hepatic expression of AMPKα1 and PPARα (hepatic gene expression [3]; liver, endpoint, qPCR) | Hepatic expression of PNPLA2, CPT1a, CACT, ACADI and UCP2 (hepatic gene expression [3]; liver, endpoint, qPCR) | NFKB2, RELB and TNFα expression (qPCR) (hepatic gene expression [2]) | also measured
1 | CC(C)C[C@H](N)C(=O)O [leucine] | yellowish coloration of the liver and enlarged visceral fat pads | significantly increased | but not leucine | marked HS | markedly upregulated |  |  |  |  |  |  |  |  |  |  | 
2 | Gly-Gly-Leu [DT-109] | attenuated | attenuated | protective effects | significantly attenuated | attenuated | 28 | reduced | markedly attenuated | downregulation | without significant changes | upregulation | significantly increased | significantly induced | significantly upregulated | significantly downregulated | Adipocyte hypertrophy in EAT and SAT (diet-induced NASH; NASH-diet, 0.5 mg/g/day DT-109): decreased adipocyte hypertrophy; NAS (diet-induced NASH; endpoint, 0.5 mg/g/day DT-109): significantly decreased; Liver diacylglycerols (DAG) (NASH-diet-induced HS; 0.5 mg/g/day DT-109): significantly reduced; CCL2, CCR2 and CCR5 expression (qPCR) (hepatic gene expression [2]; 0.5 mg/g/day DT-109): downregulated
3 | Gly-Gly-[dL] [DT-110] | attenuated |  |  |  |  |  |  |  |  |  |  | significantly increased | significantly induced | significantly upregulated |  | Hepatic GLUT1 expression (hepatic gene expression [3]; liver, endpoint, qPCR): markedly induced; Hepatic expression of LDLR (hepatic gene expression [3]; liver, endpoint, qPCR): significant upregulation
4 | NCC(=O)O [glycine, reference compound] | attenuated | attenuated | protective effects | significantly attenuated |  | 51 | reduced | markedly attenuated | downregulation | without significant changes | upregulation | significantly increased | significantly induced | significantly upregulated | significantly downregulated | Endpoint body weight, lower by ([1]; oral gavage 6 times per week, 12 weeks, glycine 0.67 mg/g, vs WD+H2O): 12%; Hepatic expression of genes regulating gluconeogenesis (G6pc, PCK1 and FBP1) (hepatic gene expression [3]; liver, endpoint, qPCR): no significant change; Hepatic expression of genes regulating glucose uptake (GLUT1, GLUT2 and GLUT4) (hepatic gene expression [3]; liver, endpoint, qPCR): upregulated; MCP1 expression in the liver (hepatic gene expression [3]; liver, endpoint, qPCR): suppressed
